Data reported in patent US9133220B2, “Boron-containing 5-arylidene-3,5-dihydro-4H-imidazol-4-ones” (Evrogen Joint Stock Company, priority 2012, dated 2015).
“And” between values parts separate entries of the source, which are not always exact repeats. Equal entries are not always repeated.

Assays:
[1] = Measuring spectral characteristics (absorption and emission maxima, extinction coefficients); format: physicochemical; conditions: excitation at 488 nm, detection at 500-540 nm
[2] = as above; format: physicochemical
Experimental: (§1) To measure spectral characteristics of some compounds with the formula I weighted portions of compounds p-NH2-BDI-BF2, p-dimethylamino-BDI-BF2, p-diethylamino-BDI-BF2, p-HOBDI-BF2, di-F-p-HOBDI-BF2, p-diethylamino-BDI-dimethylaminoethenyl-BF2 and p-HOBDI-dimethylaminoethenyl-BF2 were dissolved in water, ethanol and acetonitrile. Absorption spectra were measured on Varian Cary 100 Bio spectrophotometer, fluorescence spectra were measured on Varian Cary Eclipse scanning spectrofluorometer.
The values of absorption and emission maxima and molar extinction coefficients for examples of compounds with the formula I in the indicated solvents are listed in a Table 2. Emission peaks of the investigated compounds settle into a rather wide range from 485 nm for p-HOBDI-BF2 to 598 nm for p-diethylamino-BDI-dimethylamino-ethenyl-BF2.

[3] = test system: cell membranes of HeLa Kyoto and HEK293 cell lines; test: Staining of cell membranes and comparison of photostability with EGFP; format: cell-based, human
Experimental: Human cell cultures HeLa and HEK293 were grown in standart conditions and analyzed by wide field fluorescent and confocal laser scanning microscopy (excitation at 488 nm, detection at 500-540 nm).
The cell staining of the cells, temporarily expressing chimer protein EGFP-XRCC (nuclear localization), was carried out by p-diethylamino-BDI-BF2 in concentration 5 μM to compare fluorescent properties of the compound p-diethylamino-BDI-BF2 to the green fluorescent protein EGFP.

[4] = Quantum yield of fluorescence; format: physicochemical
Experimental: as §1
The compounds p-NH2-BDI-BF2, p-HOBDI-BF2 (anionic form), di-Fp-HOBDI-BF2 (anionic form), p-diethylamino-BDI-dimethylaminoethenyl-BF2, p-HOBDI-dimethylaminoethenyl-BF2 (anionic form) have rather high quantum yields of fluorescence in water solutions.

difference in the brightness of fluorescence in water and organic phases [1]: more than 10 times | shift of emission and absorption spectra with change of more polar solvent (water) to less polar (ethanol, acetonitrile) [2]: hypsochromic shift | Abs. peak ([2]; acetonitrile): 493 nm | Emis. peak ([2]; acetonitrile): 553 nm | ext. coef. ([2]; acetonitrile): 54000 M⁻¹ cm⁻¹ | Abs. peak ([2]; ethanol): 506 nm | Emis. peak ([2]; ethanol): 558 nm | ext. coef. ([2]; ethanol): 59000 M⁻¹ cm⁻¹ | Abs. peak ([2]; water): 518 nm and 514 nm | Emis. peak ([2]; water): 562 nm | ext. coef. ([2]; water): 54000 M⁻¹ cm⁻¹ | Quantum yield of fluorescence ([4]; acetonitrile): 0.34 | Quantum yield of fluorescence ([4]; ethanol): 0.22 | Quantum yield of fluorescence ([4]; in organic solvents): 0.2-0.35 | Quantum yield of fluorescence ([4]; water): 0.05
Structure (SMILES): CCN(CC)c1ccc(/C=C2\N=C(C)N(C)C2=O)c(B(F)F)c1 [p-diethylamino-BDI-BF2, (Z)-4-(4-(diethylamino)-2-(difluoroboryl)benzylidene)-1,2-dimethyl-1H-imidazole-5(4H)-one]
accumulation in cell membranes [3]: accumulated in cell membranes | fluorescence after addition to the cell medium ([3]; 1-5 μM, excitation 488 nm, detection 500-540 nm): bright yellow-green fluorescence was detected, associated with intracellular membrane structues and lipid drops
